Assay results as given in ChEMBL document CHEMBL4118096, “Branched Peptides: Acridine and Boronic Acid Derivatives as Antimicrobial Agents” (ACS Med Chem Lett, 2017).
Converted amounts (≈) assume the structure as drawn. Where a SMILES comes first, the peptide text is derived from it. The star is where a group is joined. Benzoyl(4-B(OH)2) = O=C(c1ccc(B(O)O)cc1)*; Acridin9yl = c1ccc2c(*)c3ccccc3nc2c1

How the values were obtained:
Aspergillus niger = experiment: Antifungal activity against Aspergillus niger measured on day 4 by broth microdilution method; type: functional; settings: 96 h
Staphylococcus aureus [1] = experiment: Antimicrobial activity against Staphylococcus aureus ATCC 6538 measured on day 4 by broth microdilution method; type: functional; settings: ATCC 6538, 96 h
[2] = tested on: Mycolicibacterium smegmatis; experiment: Antimicrobial activity against Mycobacterium smegmatis ATCC 607 measured on day 4 by broth microdilution method; type: functional; settings: ATCC 607, 96 h
U-87 MG = experiment: Cytotoxicity against human U87 cells assessed as decrease in cell viability at 10 uM after 24 hrs by MTT assay; type: cell-based; settings: u-87mg atcc
Escherichia coli = experiment: Antimicrobial activity against Escherichia coli C ATCC 13706 measured on day 4 by broth microdilution method; type: functional; settings: C ATCC 13706, 96 h
Staphylococcus aureus [3] = experiment: Antimicrobial activity against methicillin-resistant Staphylococcus aureus ATCC 43300 measured on day 4 by broth microdilution method; type: functional; settings: ATCC 43300, 96 h
Candida albicans [4] = experiment: Antifungal activity against Candida albicans measured on day 4 by broth microdilution method; type: functional; settings: 96 h
Candida albicans [5] = experiment: Antifungal activity against Candida albicans VT1406 in cell suspension after 24 hrs by XXT/PMS dye based assay; type: functional; settings: VT1406, 24 h
Saccharomyces cerevisiae = experiment: Induction of membrane lysis activity in Saccharomyces cerevisiae assessed as maltase release at MIC after 60 mins relative to control; type: functional
Candida albicans [6] = experiment: Antibiofilm activity against Candida albicans VT1406 after 24 hrs by XXT/PMS dye based assay; type: functional; settings: VT1406, 24 h
[7] = Safety index, ratio of EC10 for hemolytic activity in sheep RBC to MIC for Candida albicans; type: toxicity; settings: sheep red blood cells
Erythrocyte = experiment: Hemolytic activity in sheep RBC measured after 15 mins; type: ADME, cell-based, Ovis aries; settings: 0.25 h
Candida albicans [8] = experiment: Induction of membrane lysis in Candida albicans assessed as maltase release at MIC after 60 mins relative to control; type: functional

MIC (Candida albicans [5]) [µg/mL] | MIC (Candida albicans [6]) [µg/mL] | Structure (SMILES) | MIC (Aspergillus niger) [µg/mL] | MIC (Staphylococcus aureus [1]) [µg/mL] | MIC [2] [µg/mL] | Activity (U-87 MG) | MIC (Escherichia coli) [µg/mL] | MIC (Staphylococcus aureus [3]) [µg/mL] | MIC (Candida albicans [4]) [µg/mL] | Activity (Saccharomyces cerevisiae) [%] | selectivity ratio [7] | EC10 (Erythrocyte) [µg/mL] | Activity (Candida albicans [8]) [%]
– | – | CC(C)C[C@H](NC(=O)[C@H](CCCCN)NC(=O)[C@H](CCCCN)NC(=O)[C@H](CCCCN)NC(=O)[C@H](CCCCNc1c2ccccc2nc2ccccc12)NC(=O)[C@H](CCCCN)NC(=O)[C@H](CCCCN)NC(=O)[C@@H](N)CCCCNc1c2ccccc2nc2ccccc12)C(=O)N[C@@H](CCCCNC(=O)c1ccc(B(O)O)cc1)C(=O)N[C@@H](Cc1ccc(O)cc1)C(=O)O (H-K(Acridin9yl)KKK(Acridin9yl)KKKLK(Benzoyl(4-B(OH)2))Y-OH) | 32 (≈ 17.6 µM) | 1 (≈ 0.549 µM) | 16 (≈ 8.78 µM) | Non-Toxic | 4 (≈ 2.2 µM) | 2 (≈ 1.1 µM) | 8 (≈ 4.39 µM) | – | – | – | –
– | – | NCCCC[C@H](NC(=O)[C@H](CCCCNc1c2ccccc2nc2ccccc12)NC(=O)[C@H](CCCCNc1c2ccccc2nc2ccccc12)NC(=O)[C@H](CCCCN)NC(=O)[C@H](CCCCN)NC(=O)[C@H](CCCCN)NC(=O)[C@H](CCCCN)NC(=O)[C@H](CCCCN)NC(=O)[C@@H](N)CCCCN)C(=O)N[C@@H](Cc1ccc(O)cc1)C(=O)O (H-KKKKKKK(Acridin9yl)K(Acridin9yl)KY-OH) | 62.5 (≈ 37 µM) | 1 (≈ 0.592 µM) | 16 (≈ 9.47 µM) | Non-Toxic | 8 (≈ 4.74 µM) | 62.5 (≈ 37 µM) | 4 (≈ 2.37 µM) | – | – | – | –
2 (≈ 1.1 µM) | 1 (≈ 0.549 µM) | CC(C)C[C@H](NC(=O)[C@H](CCCCN)NC(=O)[C@H](CCCCN)NC(=O)[C@H](CCCCNc1c2ccccc2nc2ccccc12)NC(=O)[C@H](CCCCN)NC(=O)[C@H](CCCCN)NC(=O)[C@H](CCCCNc1c2ccccc2nc2ccccc12)NC(=O)[C@@H](N)CCCCN)C(=O)N[C@@H](CCCCNC(=O)c1ccc(B(O)O)cc1)C(=O)N[C@@H](Cc1ccc(O)cc1)C(=O)O (H-KK(Acridin9yl)KKK(Acridin9yl)KKLK(Benzoyl(4-B(OH)2))Y-OH) | 32 (≈ 17.6 µM) | 8 (≈ 4.39 µM) | 32 (≈ 17.6 µM) | Non-Toxic | 2 (≈ 1.1 µM) | – | 2 (≈ 1.1 µM) | 1.4 | > 100 | > 250 | 1
